Results taken from the METLIN SMRT retention time set (Domingo-Almenara et al. 2019).

Assay: gradient 5% acetonitrile 3 min, to 50% in 2 min, to 85% in 15 min, held 3 min, 100 µL/min
Conditions: column: Zorbax Extend-C18 2.1 x 50 mm; eluents: water / acetonitrile, 0.1% formic acid
Outline: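 Pure standards were run in mixtures of ~100 molecules by HPLC coupled to a quadrupole time-of-flight mass spectrometer. The column was a Zorbax Extend-C18 (2.1 × 50 mm, 1.8 μm) at 100 μL/min, with water and acetonitrile each containing 0.1% formic acid, in positive and negative ionization mode. Dead and dwell volumes were 40 μL and 900 μL. Retention time was taken from computationally picked adduct peaks, each manually inspected, with data collected over 3 months.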

RP-LC retention time | SMILES
863 s | Cc1ccccc1Oc1nccn2c(=O)n(CC(=O)Nc3ccccc3Cl)nc12
1060 s | CCCN1C(=O)COc2ccc(-c3csc(NC(=O)c4ccc(F)cc4)n3)cc21
810 s | Cc1nn(-c2ccc(Cl)cc2)c(C)c1S(=O)(=O)N1CCC(C(=O)N2CCOCC2)CC1
893 s | Cc1nc2c(ccc3nc(NC(=O)c4cccc(F)c4)sc32)s1
800 s | CC(=O)N(Cc1nn(C)c2c1CN(S(=O)(=O)c1cc(F)ccc1F)CC2)c1ccccc1
869 s | Cc1ccc(NC(=O)Cn2nc(N(C)C)c3ccccc3c2=O)c(C)c1
781 s | CCOc1ccc(NC(=O)N2CCC3(CC2)NC(=O)c2ccccc2N3C)cc1
964 s | Cc1noc(-c2cccc(OC3CN(S(=O)(=O)c4c(C)noc4C)C3)c2)n1
585 s | O=C1CCN(C(=O)c2cccs2)CCOCCN1
805 s | Cc1nc(N2CCOCC2)c2c(C(=O)Nc3ccccc3F)c(C)oc2n1
995 s | O=C(NCc1ccccc1F)c1ccc(NC(=O)C2CC2)cc1N1CCOCC1
975 s | CC1Cc2cc(-c3cc(CC(=O)N4CCN(c5ccccc5F)CC4)no3)ccc2O1 (stereo not given)
835 s | Cc1cc(C)cc(NC(=O)C2CCCN(c3ccc4cc(S(=O)(=O)N5CCCC5)ccc4n3)C2)c1 (stereo not given)
742 s | O=C(Nc1ccccc1)N1CCC(n2cnc3ccc(F)cc3c2=O)CC1
1130 s | COc1ccc(N2CCN(c3cc(SCC(=O)Nc4cc(F)ccc4F)ncn3)CC2)cc1
598 s | COc1ccc(S(=O)(=O)N2CCCC2)cc1C(=O)Nc1cccc2cnccc12
623 s | COCC(=O)N1CCc2c(sc3ncnc(N4CCOCC4)c23)C1
1230 s | Cc1cccc(N2CCN(S(=O)(=O)c3ccc(-c4c(C)noc4C)cc3)CC2)c1C
731 s | Cc1noc(C)c1CNC(=O)c1ccc(F)cc1Cl
797 s | COc1ccc(NC(=O)C2CCCN(c3nc4cccnc4s3)C2)cc1 (stereo not given)
595 s | O=C(C1CCCN(Cc2nc(-c3cccnc3)no2)C1)N1CCc2ccccc21 (stereo not given)
663 s | COc1ccc(C(=O)NC2CCN(c3cc(-c4ccccc4)[nH]n3)C2)cc1OC (stereo not given)
753 s | Cc1cc(S(=O)(=O)N2C[C@H](F)C[C@@H]2C(=O)N2CCOCC2)ccc1Cl
1130 s | CCc1noc(NC(C)=O)c1-c1ccc(C)c(S(=O)(=O)N2CCN(c3cc(C)ccc3C)CC2)c1
1090 s | CC(NC(=O)c1ccccc1)c1nc(-c2ccc3oc(-c4ccccc4)nc3c2)no1 (stereo not given)
721 s | CN1C(=O)CCC2(CNC(=O)Nc3ccccc3)CCC=C12 (stereo not given)
867 s | Cc1ccc(-n2nc(C)c3sc(N4CCCC(C(=O)NCc5ccc(N(C)C)cc5)C4)nc32)cc1 (stereo not given)
836 s | CC1=C(c2ccc(C)c(C)c2)S(=O)(=O)N=C1N1CCCN(C(=O)c2ccco2)CC1
609 s | O=C(CN1C(=O)c2ccccc2C1=O)Nc1nnc(C2=COCCO2)o1

The remaining lines, values behind:

SMILES | RP-LC retention time
COc1cccc(NS(=O)(=O)c2c(C)nn(-c3ccc(-c4ccc(C)cc4)nn3)c2C)c1 | 1080 s
COCC(=O)N(C1CCOCC1)C1CCN(S(=O)(=O)c2ccc(F)cc2)CC1 | 749 s
CCc1ccc(NS(=O)(=O)c2cc3c4c(c2)CCC(=O)N4CCC3)cc1 | 906 s
CCN(CC)C(=O)c1cnc2snc(C)c2c1N1CCC(C(=O)Nc2c(C)cc(C)cc2C)CC1 | 901 s
CCc1noc([C@@H]2CC(F)(F)CN2S(=O)(=O)c2cccnc2)n1 | 773 s
CC(C)n1cnc2cc(CNC(=O)Cc3cccs3)ccc21 | 600 s
CCn1nc(C)c(CCN(C)C(=O)Cn2nc3n(c2=O)CCC(N)CC3)c1C (stereo not given) | 515 s
CNC(=O)c1cn2ccnc(-c3ccc(C)cc3)c2n1 | 755 s
O=c1ccc(-c2ccc3c(c2)OCO3)nn1Cc1nc(-c2ccc(F)cc2)no1 | 988 s
Cn1cc(CN2CCC(C(=O)NC3CCCC3)CC2)c2cc(Cl)ccc21 | 692 s
S=C1SCN(CCc2ccccc2)CN1CCc1ccccc1 | 1210 s
CCn1cnc(S(=O)(=O)N2CCCC(C(=O)Nc3cccc(CN4CCCC4)c3)C2)c1 (stereo not given) | 607 s
CCN1CCCC1CN(CC(=O)N1CCNCC1)S(=O)(=O)c1ccc(Br)cc1 (stereo not given) | 583 s
COc1ccc(S(=O)(=O)N2CCCC(C(=O)NC(C)C)C2)cc1OC (stereo not given) | 720 s
O=C(COc1ccccc1)N1CCc2[nH]nc(-c3ccccc3)c2C1 | 788 s
O=c1nccc(SCc2ccc(Cl)cc2Cl)[nH]1 | 842 s
C=CCN1CCN(c2nc3cc(C(=O)OC)ccc3c(=O)n2-c2cccc(Cl)c2)CC1 | 681 s
CCCN(C)C(=O)c1cc2c(s1)N(CCC)CCCC2 | 1170 s
Cn1nccc1-c1nc(-c2ccc3oc(-c4ccccc4)nc3c2)no1 | 1230 s
CC1CCN(S(=O)(=O)c2nn(C)cc2C(=O)NCCc2cccs2)CC1 | 952 s
O=C(NC1CCCC1)N1c2ccccc2CC1c1nc(C2CC2)no1 (stereo not given) | 972 s

SMILES | RP-LC retention time
CCn1ccc(NC(=O)Nc2cc(C)cc(C)c2)n1 | 853 s
NC(=O)CSc1nnc(-c2ccncc2)o1 | 486 s
COc1cc2nccc(Oc3ccc(NC(=O)Nc4ccc(F)cc4F)c(F)c3)c2cc1OC | 782 s
COc1cc(CCNC(=O)c2c(N3CCCC3=O)c3cc(F)ccc3n2C)cc(OC)c1OC | 762 s
CCN(CC)C(=O)C1CCCN(C(=O)c2nn(C)c3c2CN(C(=O)c2ccco2)CC3)C1 (stereo not given) | 658 s
CCCN1CCN(C(=O)CCCn2c3ccccc3c3cnn(C)c(=O)c32)CC1 | 600 s
CCOC(=O)c1cn(CC(=O)NCCC(C)C)c2nc(C)ccc2c1=O | 723 s
COC(=O)c1cc2c(=O)n(Cc3ccco3)ccc2nc1C | 747 s
O=C1[C@H]2CN(Cc3ccccc3)C[C@H]2C(=O)N1CCc1ccccc1 | 713 s
COc1ccc(-c2nnc(COc3ccc(NC(=O)C(NC(=O)c4ccco4)C(C)C)cc3)o2)cc1 (stereo not given) | 854 s
Fc1cccc(-c2nc(-c3ccc4nncn4c3)no2)c1 | 813 s
CCC1CN2C=NC(N3CCN(C(=O)c4ccc(C)s4)CC3)=CC2=N1 (stereo not given) | 632 s
CCOC(=O)c1ccc2c(c1)NCc1cccc(OC)c1O2 | 1030 s
CCOC(=O)c1cc(C2CC2)nc2c1c(=O)n(CCc1c(C)noc1C)c(=O)n2C | 980 s
CS(=O)(=O)NCCc1ccc(CC2CCN(S(=O)(=O)c3cccnc3)CC2)cc1 | 814 s
COc1cccc(-c2csc(Cc3nc(-c4cccs4)no3)n2)c1 | 1020 s
O=C(NCC1CCN(C(=O)Nc2ccc(F)cc2)CC1)c1ccsc1 | 682 s
NC(=O)C1CCN(Cc2cc(-c3ccc(F)cc3)n[nH]2)CC1 | 571 s
COc1ccc(C2Cn3cnc(C(=O)N4CCC(C(=O)NC(C)C)CC4)c3CO2)cc1 (stereo not given) | 669 s
c1coc(-c2nnc(Nc3nc4cc5c(cc4s3)OCO5)o2)c1 | 694 s
COc1ccc(CC(C)(O)CNC(=O)c2cccc(C(F)(F)F)c2)cc1 (stereo not given) | 823 s

SMILES | RP-LC retention time
O=c1ccc(S(=O)(=O)N2CCCCCC2)cn1Cc1ccccc1F | 936 s
CCCNC(=O)C1CCN(S(C)(=O)=O)c2ccccc2O1 (stereo not given) | 708 s
CCNc1nc(NC(C)C)nc(-c2ccncc2)n1 | 733 s
O=C(Cn1c(=O)c2cccn2c2ccc(F)cc21)NCCCN1CCCC1 | 598 s
O=C(Nc1ccc(C(=O)N2CCC(C(=O)NC3CCCCCC3)CC2)cc1)c1ccccc1Cl | 839 s
COc1ccc(NC(=O)NC(C)C(=O)N2CCc3ccccc32)c(OC)c1 (stereo not given) | 859 s
Cc1nc(C2CN(S(=O)(=O)c3c(C)c(C)cc(C)c3C)CC23CCOCC3)no1 (stereo not given) | 1020 s
CCNC(=O)N1C[C@@H]2CCCN3CCC[C@@H]([C@H]23)[C@H]1CCCC(=O)NCC1CC1 | 569 s
CS(=O)(=O)NCC(c1ccsc1)N1CCc2ccccc2C1 (stereo not given) | 563 s
CC(C)c1nc(NC(=O)Cn2nc3c(cc2=O)CCCCC3)n[nH]1 | 632 s
CCn1cnc(S(=O)(=O)N2CCC(C(=O)Nc3cc(C)ccc3OC)CC2)c1 | 674 s
CCOC(=O)C1=C(C)NC(C)=C(C(=O)OCC)C1c1ccncc1 | 564 s
Cc1cnc(C(=O)N2CCCCCCNC(=O)[C@@H]3CCCC[C@@H]32)cn1 | 694 s
CC(=O)N1CCc2cc(N3CC(C(=O)Nc4ccc5c(c4)OCCO5)CC3=O)ccc21 (stereo not given) | 667 s
CCc1noc2ncnc(NCCN(C)Cc3ccccc3)c12 | 595 s
CC(C(=O)Nc1cccc(Cl)c1)C1CCN(C(=O)Nc2ccc(F)cc2)CC1 (stereo not given) | 933 s
Fc1ccc(OCc2nn3c(-c4cccnc4)nnc3s2)cc1 | 781 s
Cc1ccc(NC(=O)CSCC(=O)N2CCC(C(N)=O)CC2)cc1 | 630 s
Cc1cc(C)n(-c2ccc(=O)n(C(C)C(=O)NCCc3csc(-c4ccccc4)n3)n2)n1 (stereo not given) | 780 s
